Experiments:
[1] = test system: human ovarian teratocarcinoma xenograft PA-1; assay: Human tumor xenograft model in mice: PA-1 (combination with carboplatin); format: in vivo; conditions: carboplatin weekly, 90 mg/kg/adm
[2] = test system: ALL-SIL T-cell lymphoblastic leukemia; assay: Human tumor xenograft model in mice: ALL-SIL (combination with dasatinib); format: in vivo
[3] = test system: human T-ALL leukemia xenografts HPB-ALL; assay: Human tumor xenograft model in mice: HPB-ALL (combination with dexamethasone); format: in vivo; conditions: for Tumor Growth Delay / Tumor Growth Delay (LCK): target tumor size 3000 mg
Notch 1 = assay: Notch-CBF1 Transactivation Assay (Notch 1); format: cell-based; conditions: read-out: Notch 1 (IC50), HeLa cells, luciferase, rounded to 2 digits
Excerpt: (§1) Table 12 denotes respective DNA quantity for the transfections.
(§2) Duplicates were used for each sample.

Notch 3 = assay: Notch-CBF1 Transactivation Assay (Notch 3); format: cell-based; conditions: read-out: Notch 3 (IC50), HeLa cells, luciferase, rounded to 2 digits
Excerpt: as §1, §2

[4] = High Throughput (HT) Metabolic Stability Panel, human liver microsomes; conditions: 0.5 μM compound, human liver microsomes, 10 min incubation
Experimental: (§3) Each compound was tested in duplicate.

[5] = High Throughput (HT) Metabolic Stability Panel, mouse liver microsomes; conditions: 0.5 μM compound, mouse liver microsomes, 10 min incubation
Experimental: as §3

[6] = test system: TALL1 Human T-cell acute lymphoblastic leukemia; assay: Human tumor xenograft model in mice: TALL1; format: in vivo; conditions: 24 mg/kg, oral, QD × 15, 10 Day-on-2 Day-off
[7] = test system: human breast carcinoma cell line MDA-MB-157; assay: Human tumor xenograft model in mice: MDA-MB-157; format: in vivo; conditions: 24 mg/kg, oral, QD × 15, 10 Day-on-2 Day-off
[8] = test system: MDA-MB-468 Human Breast Carcinoma; assay: Human tumor xenograft model in mice: MDA-MB-468 (combination with paclitaxel); format: in vivo
human tumor xenografts = assay: Human Tumor Xenograft Models in Mice (various tumors); format: in vivo; conditions: oral administration (PO)
[9] = test system: ER receptor positive human breast carcinoma xenograft MCF7; assay: Human tumor xenograft model in mice: MCF7 (combination with Tamoxifen); format: in vivo
[10] = Dasatinib 10 mg/kg PO, QD x 49, target tumor size 1000 mg
[11] = Dexamethasone 3.75 mg/kg IP, QD x 14
[12] = Paclitaxel 12 mg/kg IV, Q7D x 6
[13] = Paclitaxel 12 mg/kg IV, Q7D x 6, target tumor size 500 mg
[14] = Tamoxifen 20 mg/kg IP, Q2D × 10

N.N.O=C([O-])C1(C(=O)[O-])CCC1.[Pt+2] [Carboplatin, carboplatin, reference compound]
antitumor effect (LCK) [1]: 2.1 LCK

Cc1nc(Nc2ncc(C(=O)Nc3c(C)cccc3Cl)s2)cc(N2CCN(CCO)CC2)n1 [Dasatinib, dasatinib, reference compound]
CR (%) ([2]; Dasatinib 10 mg/kg PO, QD x 49): 0% | PR (%) ([2]; Dasatinib 10 mg/kg PO, QD x 49): 0% | Tumor Growth Delay [2, 10]: 30.2 days | Tumor Growth Delay (LCK) [2, 10]: 1.7 LCK | antitumor effect (LCK) ([2]; dasatinib alone, 10 mg/kg/adm, QD×49, PO): 1.7 LCK

C[C@@H]1C[C@H]2[C@@H]3CCC4=CC(=O)C=C[C@]4(C)[C@@]3(F)[C@@H](O)C[C@]2(C)[C@@]1(O)C(=O)CO [Dexamethasone, dexamethasone, reference compound]
CR (%) [3, 11]: 0% | PR (%) [3, 11]: 0% | Tumor Growth Delay [3, 11]: 5.6 days | Tumor Growth Delay (LCK) [3, 11]: 0.6 LCK | Tumor Growth Delay ([3]; Dexamethasone […] IP, QD x 14): 5.8 days | Tumor Growth Delay (LCK) ([3]; Dexamethasone […] IP, QD x 14): 0.7 LCK | antitumor efficacy (LCK) ([3]; dexamethasone as a single agent at its MTD of 7.5 mpk): 0.7 LCK

NC(=O)[C@@H](CCC(F)(F)F)[C@@H](CCC(F)(F)F)C(=O)N[C@H]1N=C(c2ccccc2)c2ccccc2NC1=O [Example 2, (2R,3S)—N-((3S)-2-Oxo-5-phenyl-2,3-dihydro-1H-1,4-benzodiazepin-3-yl)-2,3-bis(3,3,3-trifluoropropyl)succinamide]
IC50 (Notch 1): 1.7 nM | IC50 (Notch 3): 3.3 nM | 0.5 μM HLM (% Remaining) [4]: 88% | 0.5 μM MsLM (% Remaining) [5]: 86% | Antitumor Activity TALL1 (LCK) [6]: 2.4 LCK | Antitumor Activity MDA-MB-157 (% TGI) [7]: 85 % TGI | Antitumor Activity MDA-MB-468 (% TGI) ([8]; single agent, 24 mg/kg, oral, QD × 15, 10 Day-on-2 Day-off): 87 % TGI | antitumor activity (human tumor xenografts): showed antitumor activity

NC(=O)[C@@H](CCCC(F)(F)F)[C@@H](CCC(F)(F)F)C(=O)N[C@H]1N=C(c2ccccc2)c2ccccc2NC1=O [Example 19, (2R,3S)—N-((3S)-2-Oxo-5-phenyl-2,3-dihydro-1H-1,4-benzodiazepin-3-yl)-3-(4,4,4-trifluorobutyl)-2-(3,3,3-trifluoropropyl)succinamide]
IC50 (Notch 1): 1.3 nM | IC50 (Notch 3): 3.8 nM | 0.5 μM HLM (% Remaining) [4]: 96% | 0.5 μM MsLM (% Remaining) [5]: 97%

COc1ccc2c(c1)NC(=O)[C@@H](NC(=O)[C@H](CCC(F)(F)F)[C@H](CCCC(F)(F)F)C(N)=O)N=C2c1ccccc1 [Example 20, (2R,3S)—N1-((3S)-8-Methoxy-2-oxo-5-phenyl-2,3-dihydro-1H-1,4-benzodiazepin-3-yl)-3-(4,4,4-trifluorobutyl)-2-(3,3,3-trifluoropropyl)succinamide]
IC50 (Notch 1): 2.9 nM | IC50 (Notch 3): 4.2 nM | 0.5 μM HLM (% Remaining) [4]: 100% | 0.5 μM MsLM (% Remaining) [5]: 100%

COCCNc1cccc2c1NC(=O)[C@@H](NC(=O)[C@H](CCC(F)(F)F)[C@H](CCC(F)(F)F)C(N)=O)N=C2c1ccccc1 [Example 21, (2R,3S)—N-((3S)-9-((2-Methoxyethyl)amino)-2-oxo-5-phenyl-2,3-dihydro-1H-1,4-benzodiazepin-3-yl)-2,3-bis(3,3,3-trifluoropropyl)succinamide]
IC50 (Notch 1): 1.5 nM | IC50 (Notch 3): 4.2 nM | 0.5 μM HLM (% Remaining) [4]: 98% | 0.5 μM MsLM (% Remaining) [5]: 82%

CC(=O)O[C@H]1C(=O)[C@@]2(C)[C@H]([C@H](OC(=O)c3ccccc3)[C@]3(O)C[C@H](OC(=O)[C@H](O)[C@@H](NC(=O)c4ccccc4)c4ccccc4)C(C)=C1C3(C)C)[C@]1(OC(C)=O)CO[C@@H]1C[C@@H]2O [Paclitaxel, paclitaxel, reference compound]
CR (%) [8, 12]: 0% | PR (%) [8, 12]: 0% | Tumor Growth Delay [8, 13]: 7.8 days | Tumor Growth Delay (LCK) [8, 13]: 0.5 LCK | antitumor effect (LCK) ([8]; paclitaxel weekly, 12 mg/kg/adm): 0.5 LCK

CC/C(=C(\c1ccccc1)c1ccc(OCCN(C)C)cc1)c1ccccc1 [Tamoxifen, reference compound]
CR (%) [9, 14]: 0% | PR (%) [9, 14]: 0% | Tumor Growth Inhibition TGI ([9]; Tamoxifen 20 mg/kg IP, Q2D × 10, target tumor size 500 mg): 78% | % TGI ([9]; Tamoxifen at MTD dose of 20 mg/kg/adm, IP, Q2 DX12): 78% | CR or PR ([9]; single agent): no CR or PR
